Data as given in PubChem BioAssay (NCI).
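Each compound was tested at five concentrations against cells in 96-well plates for 48 hours. TGI denotes the concentration required for complete inhibition of growth.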

Experiments:
Test in all cases: DTP human tumour cell line panel, 48 h
[1] = system: DU-145 prostate
[2] = system: PC-3 prostate
[3] = system: IGROV1 ovarian
[4] = system: RXF 393 renal
[5] = system: NCI-H522 lung
[6] = system: SK-MEL-28 melanoma
[7] = system: MOLT-4 leukemia
[8] = system: OVCAR-3 ovarian
[9] = system: SK-MEL-2 melanoma
[10] = system: HCT-15 colon
[11] = system: SNB-19 CNS
[12] = system: KM12 colon
[13] = system: MDA-MB-231 breast
[14] = system: EKVX NSCLC
[15] = system: OVCAR-5 ovarian
[16] = system: SF-295 CNS
[17] = system: UO-31 renal
[18] = system: COLO 205 colon
[19] = system: MALME-3M melanoma
[20] = system: SK-MEL-5 melanoma
[21] = system: HCT-116 colon
[22] = system: SNB-75 CNS
[23] = system: HOP-62 NSCLC
[24] = system: OVCAR-4 ovarian
[25] = system: NCI-H460 lung
[26] = system: NCI/ADR-RES ovarian
[27] = system: U251 CNS
[28] = system: HCC-2998 colon
[29] = system: MCF7 breast
[30] = system: NCI-H23 lung
[31] = system: M14 melanoma
[32] = system: UACC-62 melanoma
[33] = system: BT-549 breast
[34] = system: ACHN renal
[35] = system: CAKI-1 renal
[36] = system: OVCAR-8 ovarian
[37] = system: SW-620 colon
[38] = system: HS 578T breast
[39] = system: SK-OV-3 ovarian
[40] = system: UACC-257 melanoma
[41] = system: CCRF-CEM leukemia
[42] = system: RPMI-8226 leukemia
[43] = system: K-562 leukemia
[44] = system: MDA-N
[45] = system: MDA-MB-435
[46] = system: 786-0 renal
[47] = system: A549 NSCLC
[48] = system: TK-10 renal
[49] = system: HT29 colon
[50] = system: SF-268 CNS
[51] = system: A498 renal
[52] = system: T-47D breast
[53] = system: HOP-92 NSCLC
[54] = system: NCI-H226 lung
[55] = system: SN12C renal
[56] = system: SF-539 CNS
[57] = system: LOX IMVI melanoma
[58] = system: HL-60(TB) leukemia
[59] = system: SR leukemia

Compound: COC(=NCCC1=CCCCC1)OC
- TGI [1]: > 100 µM
- TGI [2]: > 100 µM
- TGI [3]: > 100 µM
- TGI [4]: > 100 µM
- TGI [5]: > 100 µM
- TGI [6]: > 100 µM
- TGI [7]: > 100 µM
- TGI [8]: > 100 µM
- TGI [9]: > 100 µM
- TGI [10]: > 100 µM
- TGI [11]: > 100 µM
- TGI [12]: > 100 µM
- TGI [13]: > 100 µM
- TGI [14]: > 100 µM
- TGI [15]: > 100 µM
- TGI [16]: > 100 µM
- TGI [17]: > 100 µM
- TGI [18]: 31.2 µM
- TGI [19]: > 100 µM
- TGI [20]: > 100 µM
- TGI [21]: > 100 µM
- TGI [22]: > 100 µM
- TGI [23]: > 100 µM
- TGI [24]: > 100 µM
- TGI [25]: > 100 µM
- TGI [26]: > 100 µM
- TGI [27]: > 100 µM
- TGI [28]: 39.9 µM
- TGI [29]: > 100 µM
- TGI [30]: > 100 µM
- TGI [31]: 47.3 µM
- TGI [32]: > 100 µM
- TGI [33]: > 100 µM
- TGI [34]: > 100 µM
- TGI [35]: > 100 µM
- TGI [36]: > 100 µM
- TGI [37]: > 100 µM
- TGI [38]: > 100 µM
- TGI [39]: > 100 µM
- TGI [40]: > 100 µM
- TGI [41]: > 100 µM
- TGI [42]: 85.8 µM
- TGI [43]: > 100 µM
- TGI [44]: > 100 µM
- TGI [45]: > 100 µM
- TGI [46]: > 100 µM
- TGI [47]: > 100 µM
- TGI [48]: > 100 µM
- TGI [49]: 82.9 µM
- TGI [50]: > 100 µM
- TGI [51]: > 100 µM
- TGI [52]: > 100 µM
- TGI [53]: > 100 µM

Compound: CC(C)N=C(NC#N)NS(=O)(=O)c1cnccc1Nc1ccc(Cl)cc1
- TGI [1]: > 100 µM
- TGI [2]: > 100 µM
- TGI [3]: > 100 µM
- TGI [4]: > 100 µM
- TGI [5]: > 100 µM
- TGI [6]: > 100 µM
- TGI [7]: > 100 µM
- TGI [8]: > 100 µM
- TGI [9]: > 100 µM
- TGI [10]: > 100 µM
- TGI [54]: > 100 µM
- TGI [11]: > 100 µM
- TGI [12]: > 100 µM
- TGI [13]: > 100 µM
- TGI [14]: > 100 µM
- TGI [15]: > 100 µM
- TGI [16]: > 100 µM
- TGI [17]: > 100 µM
- TGI [18]: > 100 µM
- TGI [19]: > 100 µM
- TGI [20]: > 100 µM
- TGI [21]: > 100 µM
- TGI [22]: > 100 µM
- TGI [23]: > 100 µM
- TGI [24]: > 100 µM
- TGI [26]: > 100 µM
- TGI [27]: > 100 µM
- TGI [28]: > 100 µM
- TGI [29]: > 100 µM
- TGI [30]: > 100 µM
- TGI [31]: > 100 µM
- TGI [32]: > 100 µM
- TGI [33]: > 100 µM
- TGI [34]: > 100 µM
- TGI [55]: > 100 µM
- TGI [35]: > 100 µM
- TGI [36]: > 100 µM
- TGI [37]: > 100 µM
- TGI [38]: > 100 µM
- TGI [39]: > 100 µM
- TGI [40]: > 100 µM
- TGI [41]: > 100 µM
- TGI [42]: > 100 µM
- TGI [43]: > 100 µM
- TGI [44]: > 100 µM
- TGI [45]: > 100 µM
- TGI [46]: > 100 µM
- TGI [47]: > 100 µM
- TGI [48]: > 100 µM
- TGI [49]: > 100 µM
- TGI [50]: > 100 µM
- TGI [51]: > 100 µM
- TGI [52]: > 100 µM

Compound: [N-]=[N+]=Nc1c([N+](=O)[O-])c(Cl)nc2ccccc12
- TGI [1]: 5.35 µM
- TGI [2]: 4.75 µM
- TGI [3]: 4.04 µM
- TGI [4]: 3.28 µM
- TGI [5]: 0.866 µM
- TGI [6]: 5.23 µM
- TGI [7]: 0.89 µM
- TGI [8]: 2.86 µM
- TGI [9]: 5.07 µM
- TGI [10]: 3.77 µM
- TGI [54]: 33.5 µM
- TGI [11]: 27.8 µM
- TGI [12]: 21.1 µM
- TGI [13]: 3.65 µM
- TGI [14]: 7.45 µM
- TGI [15]: 5.63 µM
- TGI [56]: 9.74 µM
- TGI [16]: 38.5 µM
- TGI [17]: 1.58 µM
- TGI [18]: 3.29 µM
- TGI [19]: 3.41 µM
- TGI [20]: 21.3 µM
- TGI [21]: 3.09 µM
- TGI [22]: 22.1 µM
- TGI [23]: 41.4 µM
- TGI [24]: 4.75 µM
- TGI [25]: 33.2 µM
- TGI [26]: 6.3 µM
- TGI [27]: 12.4 µM
- TGI [28]: 4.17 µM
- TGI [29]: 4.25 µM
- TGI [30]: 6.64 µM
- TGI [31]: 3.27 µM
- TGI [32]: 9.07 µM
- TGI [33]: 3.11 µM
- TGI [34]: 3.22 µM
- TGI [55]: 5.32 µM
- TGI [35]: 4.58 µM
- TGI [36]: 3.98 µM
- TGI [37]: 1.73 µM
- TGI [38]: 8.64 µM
- TGI [57]: 3.07 µM
- TGI [39]: 27.7 µM
- TGI [40]: 3.45 µM
- TGI [41]: 1.44 µM
- TGI [42]: > 20.8 µM
- TGI [43]: 1.74 µM
- TGI [44]: 6.56 µM
- TGI [45]: 6.64 µM
- TGI [46]: 1.11 µM
- TGI [47]: 35.2 µM
- TGI [48]: 3.78 µM
- TGI [49]: 5.09 µM
- TGI [50]: 11.7 µM
- TGI [51]: 26.8 µM
- TGI [52]: 4.82 µM
- TGI [53]: 3.66 µM

Compound: NC(=O)C(NC=O)c1ccccc1 (stereo unspecified)
- TGI [1]: > 100 µM
- TGI [2]: > 100 µM
- TGI [3]: > 100 µM
- TGI [4]: > 100 µM
- TGI [5]: > 100 µM
- TGI [6]: > 100 µM
- TGI [7]: > 100 µM
- TGI [8]: > 100 µM
- TGI [10]: > 100 µM
- TGI [11]: > 100 µM
- TGI [12]: > 100 µM
- TGI [13]: > 100 µM
- TGI [14]: > 100 µM
- TGI [56]: > 100 µM
- TGI [16]: > 100 µM
- TGI [17]: > 100 µM
- TGI [18]: > 100 µM
- TGI [20]: > 100 µM
- TGI [21]: > 100 µM
- TGI [22]: > 100 µM
- TGI [23]: > 100 µM
- TGI [24]: > 100 µM
- TGI [25]: > 100 µM
- TGI [26]: > 100 µM
- TGI [27]: > 100 µM
- TGI [28]: > 100 µM
- TGI [29]: > 100 µM
- TGI [30]: > 100 µM
- TGI [31]: > 100 µM
- TGI [32]: > 100 µM
- TGI [33]: > 100 µM
- TGI [34]: > 100 µM
- TGI [55]: > 100 µM
- TGI [35]: > 100 µM
- TGI [36]: > 100 µM
- TGI [37]: > 100 µM
- TGI [38]: > 100 µM
- TGI [57]: > 100 µM
- TGI [39]: > 100 µM
- TGI [40]: > 100 µM
- TGI [58]: > 100 µM
- TGI [41]: > 100 µM
- TGI [43]: > 100 µM
- TGI [44]: > 100 µM
- TGI [45]: > 100 µM
- TGI [46]: > 100 µM
- TGI [59]: > 100 µM
- TGI [47]: > 100 µM
- TGI [48]: > 100 µM
- TGI [49]: > 100 µM
- TGI [50]: > 100 µM
- TGI [52]: > 100 µM
- TGI [53]: > 100 µM
